Values of other authors as cited in patent publication US9783526B2, “Control of hypoxia-inducible gene expression with oligooxopiperazine nonpeptidic helix mimetics” (New York University, priority 2012, dated 2017).

Experiments:
experimental animals = details: in vivo
[1] = test system: HIF-1α C-TAD and p300/CBP

SMILES	adverse effects in experimental animals (experimental animals)	inhibition of the interaction between HIF-1α C-TAD and p300/CBP [1]
CN1C(=O)[C@]2(Cc3cn([C@]45C[C@@]67SS[C@@](CO)(C(=O)N6[C@H]4Nc4ccccc45)N(C)C7=O)c4ccccc34)SS[C@@]1(CO)C(=O)N2C [chetomin]	induced coagulative necrosis, anemia, and leukocytosis	inhibit the interaction
CN1C(=O)[C@@]23C[C@]4([C@]56C[C@@]78SS[C@@](CO)(C(=O)N7[C@H]5Nc5ccccc56)N(C)C8=O)c5ccccc5N[C@@H]4N2C(=O)[C@]1(CO)SS3 [chaetocin]	induced coagulative necrosis, anemia, and leukocytosis	
